Assay results as given in patent US9018176B2, “Inducers of hematopoiesis and fetal globin production for treatment of cytopenias and hemoglobin disorders” (priority 2010, dated 2015).
Several values for one entry are separate records, joined by “and”; a condition that tells them apart may be missing. Equal values may be shown once. Entries after “also recorded” stand apart in the source; their conditions may differ.

Assays:
γ-globin gene promoter = test: Dual luciferase reporter assay (μLCRβprRlucAγprFluc cassette) in GM979 cells; type: cell-based; settings: Resveratrol at 10 μM, MS-275 at 5 μM; for activity compared with sodium Butyrate: Ambroxol at 1 μM, Desloratadine at 1 μM, Benserazide at 0.03 μM (or a range of 30 nM-5 μM), NSC-95397 at 1 μM, versus sodium Butyrate at 2000 μM; for most active at inducing γ-globin mRNA expression: Benserazide at 0.03 μM
Text: Cell-based screen for γ-globin inducing compounds in GM979 cells (Skarpidi, et al. Blood 2000; 96:321-326). Mini-gene construct integrated into GM979 cell genome. The readout is Firefly/Renilla luciferase ratio, and is designed to identify only strong inducers of the γ-globin promoter, and specificity for the γ- vs. the […]γ-globin gene. This second assay confirmed 12/15 candidates.
This assay is […], and consists of a dual-luciferase reporter construct containing the LCR and the […] luciferase and the Aγ-globin promoter linked to firefly luciferase (μLCRβprRlucAγprFluc cassette), stably-transfected into GM979 cells. The orientation of the promoters and μLCR allowed detection only of strong, specific inducers of the γ-globin gene promoter. This assay is also been predictive of in vivo HbF-inducing activity.
The γ-globin-specificity of hits was determined in a secondary assay employing a stably-transfected dual-luciferase reporter construct containing the LCR and the β-globin promoter linked to renilla luciferase and the Aγ-globin promoter linked to firefly luciferase (μLCRβprRlucAγprFluc cassette) (FIG. 2B).

γ-globin mRNA [1] = test: γ-globin mRNA in cultured primary human erythroid progenitors (BFU-e), real-time PCR; type: cell-based; settings: for % induction of γ-globin mRNA gene expression: FIG. 4C, HFU-E (burst-forming units-erythroid) cells, Resveratrol 30 μM, desloratadine 50 μM, NSC 50 μM, Benserazine 5 μM; for effect in increasing % of γ-globin mRNA expression: FIG. 6, BFU-e cells, Desloratadine 3 μM, Benserazide 3 μM, NSC5397 0.6 μM; for γ-globin mRNA induction: cultured primary human erythroid progenitors, concentrations pharmacologically achievable in humans
Experimental: Erythroid progenitors were cultured from cord blood CD34+ cells. […] Each compound was tested in three different cultures. […] On day 14, RNA was extracted from cultured erythroid cells, and relative quantification PCR was performed. Briefly, cDNA was generated from equal amounts of total RNA extracted using The PerfectPure RNA Purification Kit (5 Prime Inc Gaithersburg, Md.). Real-time PCR was performed using an ABI 7500 Real-Time PCR system (Applied Biosystems, Foster City, Calif.). Levels of globin mRNA were calculated by the ΔΔCt method. […] GAPDH levels were used for standardization. Western blotting Nuclear extract of K562 cells and 14-day-old BFU-e were analyzed by electrophoresis using 5-24% gradient SDS-polyacrylamide mini-gels (BIORAD Laboratories. Hercules Calif.). Proteins in the gels were transferred to Immobilon-P membranes. Blots were then incubated with BCL11A polyclonal (Novus Biologicals, Littleton Co) or mouse monoclonal (Santa Cruz Biotechnology, Santa Cruz Calif.) antibodies, after washing blots were incubated with anti-rabbit IgG-horseradish peroxidase secondary antibody (ECL, Little Chalfont Buckinghamshire UK). BCL11A bands were detected on the X-ray film using Western Lightning Reagents (Perking Elmer Inc, Waltham, Mass.).

γ-globin mRNA [2] = test: γ-globin mRNA gene expression in K562 cells; type: cell-based; settings: for % induction of γ-globin mRNA gene expression: FIGS. 4A and 4B, Resveratrol 30 μM, desloratadine 50 μM, NSC 50 μM, Benserazine 5 μM
γ-globin = test: Fetal globin (γ-globin mRNA, HbF) induction in phlebotomized anemic baboons; type: in vivo, baboons (Papio hamadryas anubis); settings: for fetal globin mRNA: Benserazide 1 or 3 mg/kg in baboon 1509, MS-275 and desloratidine
Experimental: (§1) Studies to evaluate pharmacokinetic properties and γ-globin induction were performed in juvenile baboons (Papio hamadryas anubis). Briefly, animals were chronically phlebotomized on a daily basis to achieve stable anemia, maintaining a total hemoglobin level of 7.0 to 7.5 g/dl. Candidate compounds were administered intravenously or orally once daily in single doses for pharmacokinetic studies, or once daily in single doses, 4-5 days per week for 4-5 weeks, for pharmacodynamic studies. […] Levels of γ-globin mRNA expression and globin chain synthesis were assessed in baboons before and during treatment with test compounds. A washout period between administrations of different compounds in the same baboon was provided.
(§2) Chronically catheterized baboons were phlebotomized daily to create chronic anemia with total hemoglobin levels (Hb) between 7.0 to 7.5 g/dl which simulates the expanded erythropoiesis and anemia in sickle cell disease and beta thalassemia. Blood counts were drawn and total Hb (hemoglobin) and reticulocytes were analyzed on a hemavet analyzer. Fetal globin mRNA was analyzed by RT-PCR and proportions for f-cells were analyzed by flow cytometry. […] Desloratidine (0.6 mg/kg) was administered for 4 days following a washout period. Blood counts were obtained at least 3 days/week.
Baboons HL-25 and HD50 were phlebotomized daily to create anemia with erythroid expansion. When stably anemic, Desloratidine (0.6 mg/kg) was administered orally, fetal hemoglobin (HbF) protein levels were assayed.

[3] = system: red blood cell production; test: Total hemoglobin and hematocrit in phlebotomized anemic baboons; type: in vivo, baboons (Papio hamadryas anubis); settings: for total hemoglobin levels: MS-275 as
Experimental: as §1, §2
Baboon 1509 (weight 10.9 kg) was phlebotomized to induce anemia and marrow expansion, similar to the hemoglobin disorders.

γ-globin mRNA [4] = test: γ-globin mRNA in cultured primary human erythroid progenitors (BFU-e), real-time PCR; type: cell-based
[5] = system: system A transport of amino acids; settings: cited from earlier work
CB BFU-E cells = test: CB BFU-E cell proliferation (cells/colony)
Experimental: Fetal globin-inducing activity in human erythroid progenitors was assessed. Human erythroid progenitors were cultured from peripheral blood samples, exposed to the test compounds at varying concentrations and for varying durations and analyzed for globin chain mRNA ratios. Erythroid progenitors were cultured from cord blood CD34+ cells. Briefly, CD34+ cells in the human cord blood were separated using a Ficoll-paque density gradient. CD34+ cells were cultured in H4230 medium containing 2 mM L-glutamine, 1% Methylcellulose in Iscove's Medium, 30% Fetal Bovine Serum, 1% Bovine Serum Albumin and 10^-4 M β-mercaptoethanol. Methylcellulose H4230 medium was supplemented with EPO (0.5 U/ml) and IL-3 (20 ng/ml) to support BFU-e growth. Cells were cultured in […] mini-dishes and incubated in a humidified atmosphere containing 5% CO2, at 37° C. Different concentrations of the test compounds were added at the time the cultures were established. Each compound was tested in three different cultures. BFU-e colonies grown in mini-dishes were counted on day 14 and harvested for mRNA analysis.

cell viability = settings: cited from earlier work; for DNA fragmentation: fragmentation assays
[6] = Benserazide 1 or 3 mg/kg in baboon 1509
[7] = MS275 0.5 uM, Cord Blood progenitors
[8] = MS275 0.5 uM, Normal progenitors
[9] = Benserazide 0.1-0.3 uM, Cord Blood progenitors
[10] = Benserazide 0.1-0.3 uM, Hemoglobin disorder progenitors
[11] = Benserazide 0.1-0.3 uM, Normal progenitors
[12] = Ambroxol 0.1-1 uM, Cord Blood progenitors
[13] = Ambroxol 0.1-1 uM, Normal progenitors

O=C1C(SCCO)=C(SCCO)C(=O)c2ccccc21 [NSC-95397]
activity compared with sodium Butyrate (γ-globin gene promoter): significantly more active
% induction of γ-globin mRNA gene expression (γ-globin mRNA [1]): most significant % increase
effect in increasing % of γ-globin mRNA expression (γ-globin mRNA [1]): greatest effect
concentration giving the most γ-globin mRNA expression (γ-globin mRNA [2]; FIG. 5, K562 cells, tested Desloratadine 10 μM-100 μM, Resveratrol 5 μM-30 μM, NSC 1 μM-50 μM): 50 µM
% induction of γ-globin mRNA gene expression (γ-globin mRNA [2]; K562 cells): most significant % increase

Nc1ccccc1NC(=O)c1ccc(CNC(=O)OCc2cccnc2)cc1 [MS-275, N-(2-aminophenyl)-4-[N-(pyridin-3-yl-methoxycarbonyl)aminomethyl]benzamide]
activity compared with sodium Butyrate (γ-globin gene promoter): significantly more active
most active at inducing γ-globin mRNA expression (γ-globin gene promoter): most active
γ-globin induction compared with arginine butyrate (γ-globin mRNA [1]; FIG. 13, MS-275 0.5 μM vs arginine butyrate 100 μM, progenitors from human sources with low or high basal HbF): higher activity; also recorded: greater
γ-globin mRNA induction (γ-globin mRNA [1]): up to 3.7 fold
γ-globin induction, dependence on dose (γ-globin mRNA [2]; FIG. 10B, K562 cells): dose-dependent
Increase in γ-globin mRNA above baseline (γ-globin; Baboon HD50, MS-275 oral 0.18 mg/kg, 0.18 mg/kg): 270%
fetal globin mRNA (γ-globin): induced
γ-globin mRNA expression in blood compared with positive control ST20 (150 mg/kg) (γ-globin; FIG. 12A, MS-275 3 mg/m^2 for 4 days and 2 weeks, desloratadine 0.6 mg/kg for two days vs ST20 after 2 or 4 days): to the same level
total hemoglobin levels [3, 6]: increased
blood total hemoglobin (Hb) levels compared with positive control ST20 (150 mg/kg) ([3]; FIG. 12B, MS-275 3 mg/m^2 for 4 days and 2 weeks vs ST20 2 and 4 days, desloratadine 0.6 mg/kg for two days): to a greater extent
fetal globin mRNA, Mean (γ-globin mRNA [4]; [7]): 345 % of control
responses (cultures with induced fetal globin mRNA) (γ-globin mRNA [4]; [7]): 2/2
fetal globin mRNA, Mean (γ-globin mRNA [4]; [8]): 394 % of control
responses (cultures with induced fetal globin mRNA) (γ-globin mRNA [4]; [8]): 5/6
fetal globin mRNA, single subjects (γ-globin mRNA [4]; MS275 0.5 uM, Normal progenitors (MB, MB, JS, ABM, ABM)): 680 % of control and 534 % of control and 168 % of control and 463 % of control and 126 % of control

CC(=Cc1ccccc1)C(=O)O [α-methyl cinnamic acid]
system A transport of amino acids [5]: do not significantly alter

NC(CO)C(=O)NNCc1ccc(O)c(O)c1O (stereo not shown) [Benserazide, 2-amino-3-hydroxy-N′-(2,3,4-trihydroxybenzyl)propanehydrazide]
activity compared with sodium Butyrate (γ-globin gene promoter): significantly more active
most active at inducing γ-globin mRNA expression (γ-globin gene promoter): most active
responses (cultures with induced fetal globin mRNA) (γ-globin mRNA [1]; [9]): 4/5
% induction of γ-globin mRNA gene expression (γ-globin mRNA [1]): most significant % increase
effect in increasing % of γ-globin mRNA expression (γ-globin mRNA [1]): greatest effect
γ-globin mRNA induction (γ-globin mRNA [1]): up to 5 fold
concentrations that induce fetal globin (HbF) mRNA (γ-globin mRNA [1]; primary erythroid progenitors in vitro): 0.3 to 5.0 µM
% induction of γ-globin mRNA gene expression (γ-globin mRNA [2]; K562 cells): most significant % increase
number of blood cells per colony (CB BFU-E cells; FIG. 8): increase the number of blood cells per colony
Increase in γ-globin mRNA above baseline (γ-globin; Baboon 1509, Benserazide oral 2 mg/kg): 193%
fetal globin mRNA (γ-globin): increased
hemoglobin level after treatment ([3]; Baboon 1509, Benserazide 1 mg/kg then 2 mg/kg, by 2 weeks after administration, daily phlebotomy continued, before 7.6 g/dl): 8.9 g/dL
hematocrit after treatment ([3]; Baboon 1509, Benserazide 1 mg/kg then 2 mg/kg, by 2 weeks after administration, daily phlebotomy continued, before 25.6%): 28%
blood cell proliferation [3, 6]: increased blood cell proliferation
total hemoglobin levels [3, 6]: increased
fetal globin mRNA, Mean (γ-globin mRNA [4]; [9]): 300 % of control
fetal globin mRNA, Mean (γ-globin mRNA [4]; [10]): 212 % of control
responses (cultures with induced fetal globin mRNA) (γ-globin mRNA [4]; [10]): 4/4
fetal globin mRNA, single subjects (γ-globin mRNA [4]; Benserazide 0.1-0.3 uM, Hemoglobin disorder progenitors (subjects)): 178 % of control and 143 % of control and 282 % of control and 128 % of control and 277.3 % of control
fetal globin mRNA, Mean (γ-globin mRNA [4]; [11]): 151 % of control
responses (cultures with induced fetal globin mRNA) (γ-globin mRNA [4]; [11]): 3/4
fetal globin mRNA, single subjects (γ-globin mRNA [4]; Benserazide 0.1-0.3 uM, Normal progenitors (MB, JS, ABM)): 115 % of control and 223 % of control and 114 % of control

Nc1c(Br)cc(Br)cc1CN[C@H]1CC[C@H](O)CC1 [Ambroxol, ambroxol]
activity compared with sodium Butyrate (γ-globin gene promoter): significantly more active
fetal globin mRNA, single cultures (γ-globin mRNA [1]; [12]): 302 % of control and 233 % of control and 193 % of control
γ-globin mRNA induction (γ-globin mRNA [1]): 3 fold
fetal globin mRNA, Means (γ-globin mRNA [4]; [12]): 243 % of control
responses (cultures with induced fetal globin mRNA) (γ-globin mRNA [4]; [12]): 3/4
fetal globin mRNA, Means (γ-globin mRNA [4]; [13]): 224 % of control
responses (cultures with induced fetal globin mRNA) (γ-globin mRNA [4]; [13]): 1/1

CC(C)C(N)=O [isobutyramide]
cell viability (cell viability; DNA fragmentation assays): decrease cell viability

CCCC(=O)OCC [butyric acid ethyl ester]
DNA fragmentation (cell viability): reduce DNA fragmentation

CCCC(=O)O [Butyrate, butyrate]
concentration required (CB BFU-E cells; FIG. 8, comparator for the 3 drug candidates): 200 µM

O=C(O)COc1ccccc1 [phenoxyacetic acid]
DNA fragmentation (cell viability): reduce DNA fragmentation
system A transport of amino acids [5]: do not significantly alter
